In patent publication US20060154895A1, “Method of treating acquired immunedeficiency syndrome” (priority 2004, published 2006):

Legend:
[1] = Tolerance screening: daily IV dose escalation of curdlan sulfate until APTT is doubled (MTD); type: in vivo, human; conditions: IV infusion, HIV positive patients
Protocol: Patients are selected for treatment with the method of the invention based on the fact that they have previously tested positive for HIV and presently have some detectable level of HIV. Initially, the patients are screened for the effect of curdlan sulfate on coagulation times by measuring the time to coagulation using the activated partial thromboplastin time test (APTT) after IV infusion of 50 mg of curdlan sulfate in over a period of 30 minutes. A test dose of […] of curdlan sulfate is given on the first day and each day thereafter, the dose of curdlan sulfate is increased in 50 mg increments until the APTT is doubled. […] When the MTD is determined for each patient, the MTD is repeated daily for 21 days while the particular dosage regimen of the HAART drugs is continued. After the 21 days of curdlan sulfate therapy is completed, the HAART treatment regimen is also suspended and the viral load is determined daily. If there is no measurable viral load after this treatment, the treatment is deemed to be successful. If the viral load returns to measurable levels for three days, the HAART therapy may be reinstituted followed by another sequence of curdlan sulfate therapy.

T-cells = experiment: Blood T-cell levels after curdlan sulfate alone in HIV infected patients; type: in vivo, human; conditions: curdlan sulfate administered by itself to HIV infected patients
From the text: The present invention provides a treatment method for HIV infections that is designed to completely eradicate the HIV virus. […] The reappearance of HIV virus in the blood after the interruption of current therapies makes it likely that the HIV virus is capable of being retained in some biological reservoir where current therapies are unable to create an environment that inhibits or destroys the HIV virus. […] The large increase in T-cells is believed to be due to a release or flushing of T-cells from a biological repository or storage site rather than a biological production of new T-cells. This phenomenon has caused the applicants to theorize that the repository or storage site for the T-cells is also a sanctuary for the HIV virus which appears to have an ability to shield itself from the effects of anti-HIV drugs which are circulated in the blood to all of the bodies organs. The invention is directed to the administration of an entry/fusion inhibitor after a HAART drug combination has been administered in an effective amount for a sufficient time to cause the HIV cells to been eradicated from the blood stream. Thereafter, the entry/fusion inhibitor is administered in an effective amount for a sufficient period of time to eradicate the HIV cells.

Substance: curdlan sulfate
- bleeding at the MTD [1]: no bleeding at the site of injection or elsewhere is detected
- detectable blood levels of T-cells (T-cells): large increases in detectable bloods levels of T-cells
